# Test results as given in PMC8750417, “Intracellular Amplifiers of Reactive Oxygen Species Affecting Mitochondria as Radiosensitizers” (Cancers, 2021).
# Columns and labels:
# [1] = tested on: chronic lymphocytic leukemia (CLL) cells; test: Viability of primary CLL cells (CellTiter Glo); format: cell-based, human; conditions: 48 h
# Excerpt: Determination of viability of primary cancer (CLL) and normal (MNC) cells in the […]
# Clinical samples from chronic lymphocytic leukemia (CLL) patients (N=6, CLL cells) and healthy donors (N=6; peripheral blood mononuclear cells, MNCs) were collected at the University Hospital Heidelberg, Germany. Informed consent was obtained in accordance with the Declaration of Helsinki. Sample collection and analysis was approved by the ethics committee of the University of Heidelberg (S-254/2016). Blood was separated by a Ficoll gradient (GE Healthcarey), and cells were cryopreserved. Drug sensitivity screening was performed in 384-well format (Greiner Bio One) with 10 different prodrug […]
# 4x10^4 cells per well. Cells were cultured in RPMI-1640 (Invitrogen) supplemented with penicillin/streptomycin (Invitrogen), L-glutamine (Invitrogen) and 10% pooled and heat inactivated AB-type human serum (Sigma-Aldrich). Cell viability was assessed by quantification of ATP (CellTiter Glo®, Promega) 48 hours after drug application.
# Luminescence was measured on a Tecan Infinite F200 Microplate Reader. Viability was calculated as % of solvent (DMSO) treated control. Representative plots of cell viability
# A2780 cells = test: Intracellular carbonyl derivatives (DCCH), A2780; format: cell-based, human; conditions: 24 h
# Experimental: and the cells were incubated in the dark chamber filled with CO2 (5%) at 37 °C for 20 min.
# Next, the cells were detached from the culture dish using trypsin/EDTA (0.025%/0.01%, v/v, 50 µL). The cells were re-suspended in RPMI 1640 medium containing 5% FBS, 1% L-glutamine and 1% penicillin/streptomycin (100 µL). Finally, the fluorescence of live cells (λex = 488 nm, λem = 578 nm) in the suspensions was determined by using flow cytometry […]
# Figure S60. Representative flow cytometric histograms used for setting up Figures 4B […]
# Monitoring intracellular carbonyl derivatives
# A2780 cells were seeded into 24 well culture plates at the same cell concentration and in the same medium as applied for the assay for monitoring tROS described above. The next day, stock solutions of prodrugs of different concentrations (5 μL of stock solutions in DMSO, final concentration of prodrugs 5 and 10 μM; control 7 2 and 5 µM) or carrier only (DMSO, 5 µL, final concentration 1 %, v/v) were added to the wells and incubated in the chamber filled with CO2 (5%). After 24 h, the cells were washed twice with DPBS buffer and the medium was replaced with HBSS (Hanks' Balanced Salt solution, 500 μL). […]
# Finally, the fluorescence of live cells (λex = 488 nm, λem = 530 nm) in the suspensions was determined by using flow cytometry (Figure 4C). […]
smiles,measurement,setting,value
CC1(C)OB(c2ccc(COC(=O)N(Cc3cn(Cc4ccc(Cn5cc(Cc6ccccc6)nn5)cc4)nn3)[c-]3cccc3)cc2)OC1(C)C.[Fe+2].c1cc[cH-]c1 [2c],IC50,[1]; primary CLL cells from six patients,6 ± 2 µM
same,"cancer cell specificity, primary CLL cells vs MNCs","[1]; viability of CLL vs MNC, for 2c at 3.3 and 10 µM",significantly more toxic in the cancer cells than in the normal cells
same,formation of intracellular carbonyl derivatives,A2780 cells,did not induce formation of significant amounts of carbonyl derivatives
